Data: patent US11667879B2, “Dynamic incubator system and method” (FOREVER LABS, INC., priority 2019, dated 2023)

System: rat 9 L gliosarcoma cells
Assay: cell proliferation experiment, 9 L gliosarcoma cells
Assay type: cell-based
Conditions: 10 uM Fisetin for 24 hours, then 48 hours without; 72 hours, dynamic incubation vs constant
Protocol: Referring now to FIG. 11, another graph illustrating the results of another cell proliferation experiment is depicted. In this experiment, rat 9 L gliosarcoma cells after 72 hours of culture in controlled temperature and gas concentration (constant 37° C. and 5% CO2) are compared with dynamic incubation using the dynamic incubator system 10 (cycling 37° C. and 5% CO2 for 8 hrs., then 38° C. and 5.5% CO2 for 30 min.). The experiment included 10 uM Fisetin. In addition, 100,000 9 L cells were plated in a T75 flask, containing 10 mL of α-MEM medium, with 10 uM Fisetin. In addition, the medium was refreshed after 24 hours without Fisetin, and the cells were then cultured for a 48 additional hours. […] P-values are from t-test compared to control.

O=c1c(O)c(-c2ccc(O)c(O)c2)oc2cc(O)ccc12 [Fisetin]
9 L cell numbers: decreases cell numbers
